The source of these data is patent US20020177580A1, “Means and method for hormonal contraception” (priority 2001, published 2002).

Entries after “also recorded” stand apart in the source; their conditions may differ.

The subject of one series is women. Put plainly: Clinical study with dydrogesterone as progestogen-only preparation (Example 5). It counts as in vivo, human. Particulars: 20 mg dydrogesterone once a day, uninterruptedly for 4 months. From the text: Women participating in the study described in these examples are all selected on the basis that they are users of ‘high’ dose monophasic ethinyl estradiol-containing combined oral contraceptives. The reasons for applying this selection criterion is that there is a dose-relationship between follicular development and ethinyl estradiol whether given alone or in combination with a progestogen, i.e. less follicular development in the presence of the higher dose. Participation of the females involved in the study starts at a moment of (almost) complete suppression of follicular development. This condition is not met if a female has her first day of bleeding in a natural cycle, after a tablet-free interval, or immediately after a low-dose combined oral contraceptive.
A clinical study with dydrogesterone as a progestogen-only preparation is conducted in 8 women who were selected on the basis of the criteria mentioned in Example 1. The 8 women receive a 20 mg dosage of dydrogesterone once a day, uninterruptedly during a period of 4 months.

A further series deals with ovulation. Conditions: humans; reported by Claassen et al., Acta Endocrinologica (1967); cited from earlier work.
The conditions of series [1]: compared with commercially used synthetic progestogens; cited from earlier work.
For series [2] the following is noted: hormone replacement therapy with 17beta-estradiol dydrogesterone (Grisar et al., 1999); cited from earlier work.

With `CC(=O)[C@H]1CC[C@H]2[C@@H]3C=CC4=CC(=O)CC[C@@]4(C)[C@@H]3CC[C@]12C` [dydrogesterone, 9β,10α-pregna-4,6-diene-3,20-dione], in the series with women, the irregular bleeding entry is “some unpredictable irregular bleeding”, the menses flow result is listed as “reduction of the usual menses flow” and the ovulation inhibition entry is reported as “Ovulation is inhibited”. Besides, the inhibition of ovulation entry with ovulation is recorded as “cannot be used to inhibit ovulation; also recorded: does not inhibit ovulation in humans”. The “estrogenic, glucocorticoid, anabolic or androgenic properties” value in series [1] is listed as “does not exhibit estrogenic, glucocorticoid, anabolic or androgenic properties”. In addition, in series [2], the “adverse effects on blood pressure” value was “no adverse effects on blood pressure”.
